Key:
[1] = target: Casein kinase I isoform epsilon (Homo sapiens) (UniProt P49674)
[2] = target: Tyrosine-protein kinase CSK (Homo sapiens) (UniProt P41240)
[3] = target: Histamine H2 receptor (Homo sapiens) (UniProt P25021); conditions: Compound concentration 10.0 uM
[4] = target: Mast/stem cell growth factor receptor Kit (Homo sapiens) (UniProt P10721)
[5] = target: Phosphatidylinositol 5-phosphate 4-kinase type-2 gamma (Homo sapiens) (UniProt Q8TBX8)
[6] = target: T1, Alpha-2A adrenergic receptor (Homo sapiens) (UniProt P08913); conditions: Compound concentration 10.0 uM
T1 sequence (whole entry): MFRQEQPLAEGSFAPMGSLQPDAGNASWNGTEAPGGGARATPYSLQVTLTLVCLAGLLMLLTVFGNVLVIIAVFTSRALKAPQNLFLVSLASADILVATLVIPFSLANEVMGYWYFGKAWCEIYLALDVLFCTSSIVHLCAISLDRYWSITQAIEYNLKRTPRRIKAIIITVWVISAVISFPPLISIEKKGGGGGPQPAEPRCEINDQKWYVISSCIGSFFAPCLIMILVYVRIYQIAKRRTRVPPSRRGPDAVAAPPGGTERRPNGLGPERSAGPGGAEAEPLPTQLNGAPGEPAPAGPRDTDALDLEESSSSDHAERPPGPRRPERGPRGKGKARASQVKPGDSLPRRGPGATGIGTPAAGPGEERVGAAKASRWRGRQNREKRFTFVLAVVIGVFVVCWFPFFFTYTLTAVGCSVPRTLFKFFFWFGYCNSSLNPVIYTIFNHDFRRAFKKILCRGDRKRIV

[7] = target: Mitogen-activated protein kinase kinase kinase 6 (Homo sapiens) (UniProt O95382)
[8] = target: Phosphatidylinositol 5-phosphate 4-kinase type-2 beta (Homo sapiens) (UniProt P78356)
[9] = test system: Mast/stem cell growth factor receptor Kit (Homo sapiens), P10721 [D816H]
[10] = target: Ribosomal protein S6 kinase alpha-4 (Homo sapiens) (UniProt O75676)
[11] = test system: Phosphatidylinositol 4,5-bisphosphate 3-kinase catalytic subunit alpha isoform (Homo sapiens), P42336 [C420R]
[12] = target: T2, NUAK family SNF1-like kinase 1 (Homo sapiens) (UniProt O60285)
T2 sequence (whole entry): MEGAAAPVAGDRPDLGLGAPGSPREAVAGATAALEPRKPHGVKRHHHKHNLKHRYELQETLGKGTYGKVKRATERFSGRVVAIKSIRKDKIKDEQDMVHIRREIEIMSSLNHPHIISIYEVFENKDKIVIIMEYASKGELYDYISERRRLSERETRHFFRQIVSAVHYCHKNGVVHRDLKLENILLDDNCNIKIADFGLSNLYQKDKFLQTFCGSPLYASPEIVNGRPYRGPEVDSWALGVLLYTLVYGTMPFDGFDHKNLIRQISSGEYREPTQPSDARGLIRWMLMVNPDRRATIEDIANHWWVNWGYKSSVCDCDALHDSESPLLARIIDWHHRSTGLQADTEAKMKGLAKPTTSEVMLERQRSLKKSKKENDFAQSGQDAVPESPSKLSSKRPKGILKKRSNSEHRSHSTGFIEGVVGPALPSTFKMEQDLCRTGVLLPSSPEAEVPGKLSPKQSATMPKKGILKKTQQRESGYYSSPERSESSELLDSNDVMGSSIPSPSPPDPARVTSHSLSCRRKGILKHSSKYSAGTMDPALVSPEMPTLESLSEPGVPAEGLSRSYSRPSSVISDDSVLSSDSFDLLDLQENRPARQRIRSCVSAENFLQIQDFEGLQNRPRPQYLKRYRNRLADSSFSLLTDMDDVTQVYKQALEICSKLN

[13] = target: Platelet-derived growth factor receptor alpha (Homo sapiens) (UniProt P16234)
[14] = target: RAC-beta serine/threonine-protein kinase (Homo sapiens) (UniProt P31751)
[15] = target: Mitogen-activated protein kinase kinase kinase 13 (Homo sapiens) (UniProt O43283)
[16] = target: Tyrosine-protein kinase Fyn (Homo sapiens) (UniProt P06241)
[17] = target: Serine/threonine-protein kinase MRCK gamma (Homo sapiens) (UniProt Q6DT37)
[18] = target: Serine/threonine-protein kinase TAO1 (Homo sapiens) (UniProt Q7L7X3)
[19] = target: Mitogen-activated protein kinase 10 (Homo sapiens) (UniProt P53779)
[20] = target: Mitogen-activated protein kinase 6 (Homo sapiens) (UniProt Q16659)
[21] = target: Tyrosine-protein kinase Fgr (Homo sapiens) (UniProt P09769)
[22] = target: T3, Megakaryocyte-associated tyrosine-protein kinase (Homo sapiens) (UniProt P42679)
T3 sequence (whole entry): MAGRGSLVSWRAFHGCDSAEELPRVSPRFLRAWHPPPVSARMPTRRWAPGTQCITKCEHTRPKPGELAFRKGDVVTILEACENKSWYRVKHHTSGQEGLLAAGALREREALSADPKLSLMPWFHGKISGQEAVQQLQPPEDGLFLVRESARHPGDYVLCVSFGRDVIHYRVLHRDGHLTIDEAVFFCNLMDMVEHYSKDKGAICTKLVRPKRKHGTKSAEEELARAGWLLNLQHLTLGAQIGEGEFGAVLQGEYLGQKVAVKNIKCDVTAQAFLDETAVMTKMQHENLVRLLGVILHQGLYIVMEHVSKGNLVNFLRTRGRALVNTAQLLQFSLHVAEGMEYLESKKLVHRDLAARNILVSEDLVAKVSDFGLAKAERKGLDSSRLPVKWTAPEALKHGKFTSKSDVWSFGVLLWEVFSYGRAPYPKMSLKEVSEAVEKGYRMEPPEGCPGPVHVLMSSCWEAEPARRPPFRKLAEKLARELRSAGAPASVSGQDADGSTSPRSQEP

[23] = test system: Tyrosine-protein kinase ABL1 (Homo sapiens), P00519 [F317I]
[24] = Compound concentration 1000.0 nM
[25] = Compound concentration 100.0 nM

Tyrosine-protein kinase CSK (Homo sapiens), sequence (P41240 2-450 limits assumed): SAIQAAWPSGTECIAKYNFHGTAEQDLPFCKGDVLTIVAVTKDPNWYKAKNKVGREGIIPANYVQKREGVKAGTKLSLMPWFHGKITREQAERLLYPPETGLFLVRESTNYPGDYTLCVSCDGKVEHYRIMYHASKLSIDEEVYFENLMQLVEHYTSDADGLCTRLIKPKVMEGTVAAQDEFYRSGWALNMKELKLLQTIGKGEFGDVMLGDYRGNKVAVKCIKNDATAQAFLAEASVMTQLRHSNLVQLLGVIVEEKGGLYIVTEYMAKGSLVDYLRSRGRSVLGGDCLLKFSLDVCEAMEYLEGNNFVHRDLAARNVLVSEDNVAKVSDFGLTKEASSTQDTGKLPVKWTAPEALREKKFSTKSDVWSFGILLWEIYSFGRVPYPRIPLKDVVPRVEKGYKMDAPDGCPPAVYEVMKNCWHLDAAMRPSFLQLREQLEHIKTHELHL
Serine/threonine-protein kinase MRCK gamma (Homo sapiens), sequence (Q6DT37 whole entry): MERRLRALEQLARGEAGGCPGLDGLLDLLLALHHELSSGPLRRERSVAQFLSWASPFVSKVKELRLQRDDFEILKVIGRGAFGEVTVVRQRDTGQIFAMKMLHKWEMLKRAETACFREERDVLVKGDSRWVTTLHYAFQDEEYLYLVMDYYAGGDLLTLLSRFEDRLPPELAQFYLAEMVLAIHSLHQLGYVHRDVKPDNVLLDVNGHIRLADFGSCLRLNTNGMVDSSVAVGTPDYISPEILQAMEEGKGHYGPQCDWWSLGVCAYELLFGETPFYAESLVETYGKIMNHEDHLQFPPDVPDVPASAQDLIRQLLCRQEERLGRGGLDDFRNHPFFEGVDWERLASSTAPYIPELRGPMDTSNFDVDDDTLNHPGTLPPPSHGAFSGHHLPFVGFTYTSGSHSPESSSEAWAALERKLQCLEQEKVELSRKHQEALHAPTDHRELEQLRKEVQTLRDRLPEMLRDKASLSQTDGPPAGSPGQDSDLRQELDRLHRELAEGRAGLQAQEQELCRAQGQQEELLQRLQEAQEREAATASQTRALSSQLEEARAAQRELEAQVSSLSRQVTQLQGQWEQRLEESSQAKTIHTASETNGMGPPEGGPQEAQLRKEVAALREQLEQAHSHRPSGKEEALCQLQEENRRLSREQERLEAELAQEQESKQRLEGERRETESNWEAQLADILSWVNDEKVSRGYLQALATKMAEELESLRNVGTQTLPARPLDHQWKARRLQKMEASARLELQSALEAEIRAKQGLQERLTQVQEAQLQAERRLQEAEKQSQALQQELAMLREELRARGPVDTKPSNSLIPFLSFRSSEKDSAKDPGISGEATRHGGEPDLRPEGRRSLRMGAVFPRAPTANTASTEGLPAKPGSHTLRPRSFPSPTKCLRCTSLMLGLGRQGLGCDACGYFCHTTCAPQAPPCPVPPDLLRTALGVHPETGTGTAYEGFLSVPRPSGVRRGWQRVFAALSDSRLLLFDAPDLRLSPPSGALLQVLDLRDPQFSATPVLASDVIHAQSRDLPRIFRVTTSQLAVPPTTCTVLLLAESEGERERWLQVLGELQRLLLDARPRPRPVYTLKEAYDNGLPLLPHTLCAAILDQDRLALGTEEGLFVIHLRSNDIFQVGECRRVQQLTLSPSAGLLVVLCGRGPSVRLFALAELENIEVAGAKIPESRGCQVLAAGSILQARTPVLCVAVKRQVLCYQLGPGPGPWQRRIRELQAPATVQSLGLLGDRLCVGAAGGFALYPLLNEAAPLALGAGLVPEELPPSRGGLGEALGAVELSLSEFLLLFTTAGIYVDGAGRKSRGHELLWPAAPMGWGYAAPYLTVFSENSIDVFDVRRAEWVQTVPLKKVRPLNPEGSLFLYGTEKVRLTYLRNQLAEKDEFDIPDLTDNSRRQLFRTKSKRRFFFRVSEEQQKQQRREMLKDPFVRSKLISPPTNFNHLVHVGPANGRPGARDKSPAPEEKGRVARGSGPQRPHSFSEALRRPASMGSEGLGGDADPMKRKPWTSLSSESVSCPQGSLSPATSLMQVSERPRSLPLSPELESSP
Mitogen-activated protein kinase 10 (Homo sapiens), sequence (P53779 whole entry): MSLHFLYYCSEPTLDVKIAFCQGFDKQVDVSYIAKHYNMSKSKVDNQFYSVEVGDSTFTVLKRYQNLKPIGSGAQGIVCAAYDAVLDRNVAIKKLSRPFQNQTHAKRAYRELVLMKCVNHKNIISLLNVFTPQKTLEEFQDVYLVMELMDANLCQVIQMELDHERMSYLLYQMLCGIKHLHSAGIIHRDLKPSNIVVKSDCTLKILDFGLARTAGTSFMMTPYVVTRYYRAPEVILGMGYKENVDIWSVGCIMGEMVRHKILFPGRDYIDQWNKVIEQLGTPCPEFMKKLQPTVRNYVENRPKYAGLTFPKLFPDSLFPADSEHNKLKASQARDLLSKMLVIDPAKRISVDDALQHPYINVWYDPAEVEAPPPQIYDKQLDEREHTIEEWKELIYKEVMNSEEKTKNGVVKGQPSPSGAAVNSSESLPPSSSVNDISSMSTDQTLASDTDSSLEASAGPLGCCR
Phosphatidylinositol 5-phosphate 4-kinase type-2 beta (Homo sapiens), sequence (P78356 whole entry): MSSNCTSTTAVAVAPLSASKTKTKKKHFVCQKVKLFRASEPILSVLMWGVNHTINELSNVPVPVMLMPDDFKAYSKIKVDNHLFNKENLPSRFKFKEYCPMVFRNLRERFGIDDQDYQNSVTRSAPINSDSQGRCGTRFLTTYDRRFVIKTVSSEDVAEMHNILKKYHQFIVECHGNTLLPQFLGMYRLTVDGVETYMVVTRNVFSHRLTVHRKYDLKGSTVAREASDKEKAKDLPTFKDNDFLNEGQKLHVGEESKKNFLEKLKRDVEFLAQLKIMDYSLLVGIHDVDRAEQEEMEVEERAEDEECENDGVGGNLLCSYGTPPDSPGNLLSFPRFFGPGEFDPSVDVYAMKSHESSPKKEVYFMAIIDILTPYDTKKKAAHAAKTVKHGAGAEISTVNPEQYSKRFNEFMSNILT
Mitogen-activated protein kinase 6 (Homo sapiens), sequence (Q16659 whole entry): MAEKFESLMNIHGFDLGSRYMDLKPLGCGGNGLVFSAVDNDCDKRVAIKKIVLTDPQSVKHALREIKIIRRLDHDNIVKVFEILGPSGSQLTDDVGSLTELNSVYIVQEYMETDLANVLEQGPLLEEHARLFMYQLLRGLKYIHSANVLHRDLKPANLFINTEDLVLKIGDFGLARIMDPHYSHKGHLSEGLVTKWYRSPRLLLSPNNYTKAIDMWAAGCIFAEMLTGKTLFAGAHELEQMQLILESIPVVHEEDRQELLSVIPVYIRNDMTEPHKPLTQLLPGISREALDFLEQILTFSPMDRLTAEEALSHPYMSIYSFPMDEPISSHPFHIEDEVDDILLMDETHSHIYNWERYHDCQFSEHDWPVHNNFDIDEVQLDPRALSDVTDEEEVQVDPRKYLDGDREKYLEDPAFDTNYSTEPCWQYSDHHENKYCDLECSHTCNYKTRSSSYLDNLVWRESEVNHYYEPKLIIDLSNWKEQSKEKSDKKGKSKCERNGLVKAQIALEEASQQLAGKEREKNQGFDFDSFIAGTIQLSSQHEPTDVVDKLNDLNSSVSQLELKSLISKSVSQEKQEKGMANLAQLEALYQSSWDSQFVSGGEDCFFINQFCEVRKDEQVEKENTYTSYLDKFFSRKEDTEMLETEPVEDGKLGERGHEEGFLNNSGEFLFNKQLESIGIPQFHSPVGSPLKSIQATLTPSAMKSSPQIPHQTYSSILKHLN
RAC-beta serine/threonine-protein kinase (Homo sapiens), sequence (P31751 whole entry): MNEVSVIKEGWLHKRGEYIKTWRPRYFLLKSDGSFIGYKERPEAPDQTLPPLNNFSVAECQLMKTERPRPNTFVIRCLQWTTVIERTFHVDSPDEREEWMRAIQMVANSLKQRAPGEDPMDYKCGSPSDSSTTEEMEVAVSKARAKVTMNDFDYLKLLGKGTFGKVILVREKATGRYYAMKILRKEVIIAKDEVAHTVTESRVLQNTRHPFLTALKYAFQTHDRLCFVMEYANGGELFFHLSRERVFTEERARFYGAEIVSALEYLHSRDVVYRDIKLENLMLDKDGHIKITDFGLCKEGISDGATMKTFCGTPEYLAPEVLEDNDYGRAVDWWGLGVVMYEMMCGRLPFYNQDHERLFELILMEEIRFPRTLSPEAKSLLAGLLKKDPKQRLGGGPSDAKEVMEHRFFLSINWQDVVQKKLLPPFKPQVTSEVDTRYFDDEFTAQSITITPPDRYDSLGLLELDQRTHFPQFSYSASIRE
Mast/stem cell growth factor receptor Kit (Homo sapiens), sequence (P10721 whole entry): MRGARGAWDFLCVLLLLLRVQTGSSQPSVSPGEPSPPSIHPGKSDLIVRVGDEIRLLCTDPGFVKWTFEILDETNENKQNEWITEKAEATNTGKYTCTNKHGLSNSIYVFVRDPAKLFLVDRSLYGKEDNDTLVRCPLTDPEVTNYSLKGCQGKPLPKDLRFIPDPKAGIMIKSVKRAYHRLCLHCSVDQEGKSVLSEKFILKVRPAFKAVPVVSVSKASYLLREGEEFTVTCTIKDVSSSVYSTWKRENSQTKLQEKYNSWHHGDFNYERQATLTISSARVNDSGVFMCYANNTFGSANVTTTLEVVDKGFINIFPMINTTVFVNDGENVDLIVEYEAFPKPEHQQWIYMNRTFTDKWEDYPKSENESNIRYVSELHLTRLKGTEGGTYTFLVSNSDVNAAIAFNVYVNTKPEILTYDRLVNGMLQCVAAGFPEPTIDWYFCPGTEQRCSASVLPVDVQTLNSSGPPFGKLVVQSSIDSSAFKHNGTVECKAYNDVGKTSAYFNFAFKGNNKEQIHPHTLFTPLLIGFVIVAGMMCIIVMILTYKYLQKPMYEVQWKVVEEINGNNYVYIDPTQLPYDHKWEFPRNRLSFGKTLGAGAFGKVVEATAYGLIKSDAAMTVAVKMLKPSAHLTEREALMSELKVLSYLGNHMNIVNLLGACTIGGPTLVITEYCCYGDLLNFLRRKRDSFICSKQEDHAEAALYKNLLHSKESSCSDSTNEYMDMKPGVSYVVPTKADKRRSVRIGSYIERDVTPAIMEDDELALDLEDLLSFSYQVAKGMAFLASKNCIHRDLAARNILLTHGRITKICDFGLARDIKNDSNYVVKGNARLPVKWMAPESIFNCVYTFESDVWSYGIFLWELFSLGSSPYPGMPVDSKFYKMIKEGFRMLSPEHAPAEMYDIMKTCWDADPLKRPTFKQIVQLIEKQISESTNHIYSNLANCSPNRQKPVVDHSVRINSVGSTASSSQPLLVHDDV

With `C[C@@H]1CN(c2cc(-c3nn(C)c4ccc(OC5(C)CC5)cc34)ncn2)C[C@H](C)O1` [MLi-2-NC] the residual activity [1, 24] was 100%, the residual activity [2, 24] was 100% and the inhibition [3] was 18.4%. The residual activity [4, 24] was 100%, the residual activity [5, 24] was 98% and the inhibition [6] was 12.9%. It also gave a residual activity [7, 24] of 76%, a residual activity [8, 24] of 84% and a residual activity [9, 24] of 64%. The residual activity [10, 24] was 100%, the residual activity [11, 24] was 100% and the residual activity [12, 24] was 100%. For the same molecule, the residual activity [13, 24] was 83%, the residual activity [14, 24] was 89% and the residual activity [15, 24] was 91%. It also gave a residual activity [16, 24] of 98%, a residual activity [17, 24] of 100% and a residual activity [18, 24] of 82%. For the same molecule, the residual activity [19, 24] was 71%, the residual activity [20, 24] was 97% and the residual activity [21, 24] was 90%. The residual activity [22, 24] was 80% and the residual activity [23, 24] was 62%.

Work on `C[C@@H]1CN(c2cc(-c3n[nH]c4ccc(OC5(C)CC5)cc34)ncn2)C[C@H](C)O1` [MLi-2] yielded a residual activity [1, 25] of 100%, a residual activity [2, 25] of 100% and an inhibition [3] of 6.26%. The residual activity [4, 25] was 82%, the residual activity [5, 25] was 90% and the inhibition [6] was -2.84%. The residual activity [7, 25] was 59%, the residual activity [8, 25] was 81% and the residual activity [9, 25] was 67%. It also gave a residual activity [10, 25] of 100%, a residual activity [11, 25] of 72% and a residual activity [12, 25] of 92%. The residual activity [13, 25] was 75%, the residual activity [14, 25] was 100% and the residual activity [15, 25] was 0%. It also gave a residual activity [16, 25] of 100%, a residual activity [17, 25] of 89% and a residual activity [18, 25] of 86%. The residual activity [19, 25] was 77%, the residual activity [20, 25] was 91% and the residual activity [21, 25] was 89%. For the same molecule, the residual activity [22, 25] was 94% and the residual activity [23, 25] was 74%.

— ChEMBL document CHEMBL4507291 (2021)
